From publication PMC12670426 (Journal of Medicinal Chemistry, 2025)
Like-named read-outs stand apart in the source and are kept apart here.

Legend:
[1] = molecular target: T1, human galectin-1 (Gal-1, full length) (Homo sapiens, UniProt P09382); assay: Competitive fluorescence polarization assay, Gal-1; type: binding
T1 construct: Gal-1 is a prototype galectin consisting of a single CRD and was used in full length; 6xHis tag with TEV protease site (N, cleaved yes); made in house; host or cells: BL21 Escherichia coli (pET-15b)
T1 sequence (P09382 2-135): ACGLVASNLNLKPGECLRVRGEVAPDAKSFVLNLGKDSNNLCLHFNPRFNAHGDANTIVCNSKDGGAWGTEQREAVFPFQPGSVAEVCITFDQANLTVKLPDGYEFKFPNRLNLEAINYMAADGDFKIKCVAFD
Method: (§1) Our investigation of the structure–activity relationship of N-aryl-N-lactosylamides started with an initial screening of substituted acetanilides (Table ). These compounds can be readily synthesized from a wide range of commercially available substituted anilines. Affinity was evaluated using a fluorescence polarization assay, which enables reliable determination of dissociation constants (K d) between small molecules and galectins. All inhibitors in this series were tested against the two most common human galectins: Gal-1 and Gal-3. Gal-1 is a prototype galectin consisting of a single CRD and was used in full length. In the case of Gal-3, which consists of the C-terminal CRD and N-terminal unfolded region, only the C-terminal domain was used (Gal-3C). Affinities were compared to methyl β-lactoside (β-LacOMe) as a baseline.
(§2) Fluorescence polarization experiments for determining inhibitor affinities were performed using the same instrumentation and settings as described for the direct binding experiments. […] The galectin–probe mixture was subsequently added using a Certus Flex liquid handler (Fritz Gyger AG, Switzerland) to reach a final volume of 5 μL. Anisotropy was measured after 30–60 min incubation at 25 °C. Inhibitor dissociation constants (K d) were calculated using Wang’s exact cubic model for competitive binding implemented in the BindCurve package. Protein and probe concentrations used in these competitive experiments are provided in the Supporting Information.
(§3) Competitive binding was modeled by Wang’s exact cubic model,3 which is written as […]
(§4) r = rmin + (rmax − rmin) 3 (6) […]
(§5) where r, rmin and rmax have the same meaning as in Equation 1. The coefficients a, b, and c are […]
(§6) a = Kd∗ + Kd + [L∗]T + [L]T − [R]T (7) b = Kd∗([L]T − [R]T) + Kd([L∗]T − [R]T) + Kd∗ Kd (8) […]
(§7) where Kd∗ is the dissociation constant of the probe, Kd is the dissociation constant of the […]
(§8) the unlabeled ligand, and [R]T is the total concentration of the receptor. The angle θ is defined […]
(§9) In the competitive binding experiments, the values of [L∗]T, [R]T and Kd∗ are known and [L]T is titrated. The values of minimal and maximal anisotropy rmin and rmax were fixed during fitting at the values of the minimal and maximal asymptotes obtained from the direct binding experiments. The value of Kd was calculated as the only unfixed parameter in the model.
(§10) Experimental constants used for the competitive fluorescence polarization experiments are […]
(§11) Table S2. Experimental constants used for competitive fluorescence polarization experiments. […]

[2] = molecular target: T2, human galectin-3C (Gal-3C, C-terminal CRD of galectin-3) (Homo sapiens, UniProt P17931); assay: Competitive fluorescence polarization assay, Gal-3C; type: binding
T2 construct: only the C-terminal domain was used (Gal-3C); 6xHis tag with TEV protease site (N, cleaved yes); made in house; host or cells: BL21 Escherichia coli (pET-15b)
T2 sequence (P17931 118-248 limits assumed): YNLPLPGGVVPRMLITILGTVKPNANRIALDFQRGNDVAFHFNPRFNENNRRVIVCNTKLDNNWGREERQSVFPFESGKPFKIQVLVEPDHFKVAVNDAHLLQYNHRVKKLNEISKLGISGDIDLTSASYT
Method: as §1, §2, §3, §4, §5, §6, §7, §8, §9, §10, §11

[3] = CSV supplement, unrounded mean, read-out: Gal1_IC50_mean_uM
[4] = CSV supplement, unrounded mean, read-out: Gal1_Kd_mean_uM
[5] = competitive fluorescence polarization, mean ± SD, read-out: Kd Gal-1
[6] = four-parameter logistic model, mean ± SD, read-out: IC50 Gal-1
[7] = CSV supplement, unrounded mean, read-out: Gal3C_IC50_mean_uM
[8] = CSV supplement, unrounded mean, read-out: Gal3C_Kd_mean_uM
[9] = competitive fluorescence polarization, mean ± SD, read-out: Kd Gal-3C
[10] = four-parameter logistic model, mean ± SD, read-out: IC50 Gal-3C

| IC50 [1, 3] | Kd [1, 4] | Kd [1, 5] | IC50 [1, 6] | IC50 [2, 7] | Kd [2, 8] | Kd [2, 9] | IC50 [2, 10] | improvement in affinity toward Gal-1 compared to 3a ([1]; compared to 3a) | improvement in affinity toward Gal-3C compared to 3a ([2]; compared to unsubstituted phenyl derivative 3a) | selectivity for Gal-3C over Gal-1 ([2]; ratio Kd (Gal-1)/Kd (Gal-3C)) | decrease of affinity toward Gal-3C compared to 3r ([2]; compared to 3r) | Compound |
| --- | --- | --- | --- | --- | --- | --- | --- | --- | --- | --- | --- | --- |
| 718 µM | 396 µM | 400 ± 20 µM | 720 ± 40 µM | 355 µM | 113 µM | 110 ± 20 µM | 360 ± 20 µM | – | – | – | – | CC(=O)N(c1ccc(I)cc1)[C@@H]1O[C@H](CO)[C@@H](O[C@@H]2O[C@H](CO)[C@H](O)[C@H](O)[C@H]2O)[C@H](O)[C@H]1O [Compound 3l, N-[4-O-(β-D-Galactopyranosyl)-β-D-glucopyranosyl]-N-(4-iodophenyl)acetamide] |
| 973 µM | 661 µM | 660 ± 70 µM | 970 ± 50 µM | 346 µM | 137 µM | 140 ± 50 µM | 350 ± 30 µM | – | – | – | – | COc1ccc(N(C(C)=O)[C@@H]2O[C@H](CO)[C@@H](O[C@@H]3O[C@H](CO)[C@H](O)[C@H](O)[C@H]3O)[C@H](O)[C@H]2O)cc1 [Compound 3m, N-[4-O-(β-D-Galactopyranosyl)-β-D-glucopyranosyl]-N-(4-methoxyphenyl)acetamide] |
| 678 µM | 364 µM | 360 ± 40 µM | 680 ± 10 µM | 284 µM | 88.9 µM | 89 ± 20 µM | 280 ± 10 µM | – | – | – | – | COc1ccc(N(C(C)=O)[C@@H]2O[C@H](CO)[C@@H](O[C@@H]3O[C@H](CO)[C@H](O)[C@H](O)[C@H]3O)[C@H](O)[C@H]2O)cc1OC [Compound 3n, N-[4-O-(β-D-Galactopyranosyl)-β-D-glucopyranosyl]-N-(3,4-dimethoxyphenyl)acetamide] |
| 461 µM | 243 µM | 240 ± 40 µM | 460 ± 80 µM | 238 µM | 76.2 µM | 76 ± 20 µM | 240 ± 40 µM | 2 fold | – | – | – | COc1cc(N(C(C)=O)[C@@H]2O[C@H](CO)[C@@H](O[C@@H]3O[C@H](CO)[C@H](O)[C@H](O)[C@H]3O)[C@H](O)[C@H]2O)cc(OC)c1OC [Compound 3o, N-[4-O-(β-D-Galactopyranosyl)-β-D-glucopyranosyl]-N-(3,4,5-trimethoxyphenyl)acetamide] |
| 981 µM | 545 µM | 540 ± 30 µM | 980 ± 10 µM | 346 µM | 115 µM | 110 ± 20 µM | 350 ± 10 µM | – | – | – | – | CC(=O)N(c1ccc2c(c1)OCO2)[C@@H]1O[C@H](CO)[C@@H](O[C@@H]2O[C@H](CO)[C@H](O)[C@H](O)[C@H]2O)[C@H](O)[C@H]1O [Compound 3p, N-[4-O-(β-D-Galactopyranosyl)-β-D-glucopyranosyl]-N-(1,3-benzodioxol-5-yl)acetamide] |
| 773 µM | 411 µM | 410 ± 20 µM | 770 ± 70 µM | 242 µM | 80.2 µM | 80 ± 9 µM | 240 ± 5 µM | – | – | – | – | CCOC(=O)c1ccccc1N(C(C)=O)[C@@H]1O[C@H](CO)[C@@H](O[C@@H]2O[C@H](CO)[C@H](O)[C@H](O)[C@H]2O)[C@H](O)[C@H]1O [Compound 3q, N-[4-O-(β-D-Galactopyranosyl)-β-D-glucopyranosyl]-N-[2-(ethylcarboxy)phenyl]acetamide] |
| 1400 µM | 858 µM | 860 ± 30 µM | 1400 ± 100 µM | 127 µM | 40.9 µM | 41 ± 10 µM | 130 ± 20 µM | – | 2 fold | 20 fold | – | CC(=O)N(c1cccc(C(=O)O)c1)[C@@H]1O[C@H](CO)[C@@H](O[C@@H]2O[C@H](CO)[C@H](O)[C@H](O)[C@H]2O)[C@H](O)[C@H]1O [Compound 3r, N-[4-O-(β-D-Galactopyranosyl)-β-D-glucopyranosyl]-N-(3-carboxyphenyl)acetamide] |
| 1800 µM | 1000 µM | 1000 ± 300 µM | 1800 ± 200 µM | 113 µM | 39.5 µM | 39 ± 4 µM | 110 ± 0.2 µM | – | – | – | – | CC(C)C(=O)N(c1cccc(C(=O)O)c1)[C@@H]1O[C@H](CO)[C@@H](O[C@@H]2O[C@H](CO)[C@H](O)[C@H](O)[C@H]2O)[C@H](O)[C@H]1O [Compound 3s, N-[4-O-(β-D-Galactopyranosyl)-β-D-glucopyranosyl]-N-(3-carboxyphenyl)-2-methylpropanamide] |
| 1310 µM | 841 µM | 840 ± 80 µM | 1300 ± 30 µM | 120 µM | 51.3 µM | 51 ± 10 µM | 120 ± 9 µM | – | – | – | – | O=C(O)c1cccc(N(C(=O)c2ccccc2)[C@@H]2O[C@H](CO)[C@@H](O[C@@H]3O[C@H](CO)[C@H](O)[C@H](O)[C@H]3O)[C@H](O)[C@H]2O)c1 [Compound 3t, N-[4-O-(β-D-Galactopyranosyl)-β-D-glucopyranosyl]-N-(3-carboxyphenyl)benzamide] |
| 2150 µM | 1240 µM | 1200 ± 10 µM | 2100 ± 800 µM | 133 µM | 53.6 µM | 54 ± 6 µM | 130 ± 20 µM | – | – | – | – | O=C(O)c1cccc(N(C(=O)Cc2ccccc2)[C@@H]2O[C@H](CO)[C@@H](O[C@@H]3O[C@H](CO)[C@H](O)[C@H](O)[C@H]3O)[C@H](O)[C@H]2O)c1 [Compound 3u, N-[4-O-(β-D-Galactopyranosyl)-β-D-glucopyranosyl]-N-(3-carboxyphenyl)-2-phenylacetamide] |
| 655 µM | 432 µM | 430 ± 30 µM | 660 ± 100 µM | 241 µM | 94.6 µM | 95 ± 40 µM | 240 ± 30 µM | – | – | – | – | COC(=O)c1cccc(N(C(C)=O)[C@@H]2O[C@H](CO)[C@@H](O[C@@H]3O[C@H](CO)[C@H](O)[C@H](O)[C@H]3O)[C@H](O)[C@H]2O)c1 [Compound 3v, N-[4-O-(β-D-Galactopyranosyl)-β-D-glucopyranosyl]-N-[3-(methylcarboxy)phenyl]acetamide] |
| 666 µM | 445 µM | 440 ± 100 µM | 670 ± 90 µM | 220 µM | 88.1 µM | 88 ± 20 µM | 220 ± 6 µM | – | – | – | – | CNC(=O)c1cccc(N(C(C)=O)[C@@H]2O[C@H](CO)[C@@H](O[C@@H]3O[C@H](CO)[C@H](O)[C@H](O)[C@H]3O)[C@H](O)[C@H]2O)c1 [Compound 3w, N-[4-O-(β-D-Galactopyranosyl)-β-D-glucopyranosyl]-N-[3-(methylcarbamoyl)phenyl]acetamide] |
| 842 µM | 542 µM | 540 ± 60 µM | 840 ± 90 µM | 273 µM | 106 µM | 110 ± 30 µM | 270 ± 0.9 µM | – | – | – | 2 fold | CC(=O)N(c1cccc(CO)c1)[C@@H]1O[C@H](CO)[C@@H](O[C@@H]2O[C@H](CO)[C@H](O)[C@H](O)[C@H]2O)[C@H](O)[C@H]1O [Compound 3x, N-[4-O-(β-D-Galactopyranosyl)-β-D-glucopyranosyl]-N-[3-(hydroxymethyl)phenyl]acetamide] |
| 1260 µM | 812 µM | 810 ± 200 µM | 1300 ± 100 µM | 123 µM | 48.8 µM | 49 ± 20 µM | 120 ± 9 µM | – | – | – | – | CC(=O)N(c1cccc(-c2nnn[nH]2)c1)[C@@H]1O[C@H](CO)[C@@H](O[C@@H]2O[C@H](CO)[C@H](O)[C@H](O)[C@H]2O)[C@H](O)[C@H]1O [Compound 3y, N-[4-O-(β-D-Galactopyranosyl)-β-D-glucopyranosyl]-N-[3-(1H-tetrazol-5-yl)phenyl]acetamide] |
| 860 µM | 558 µM | 560 ± 80 µM | 860 ± 100 µM | 327 µM | 121 µM | 120 ± 30 µM | 330 ± 1 µM | – | – | – | – | CC(=O)N(c1cccc(-c2ccc(C)o2)c1)[C@@H]1O[C@H](CO)[C@@H](O[C@@H]2O[C@H](CO)[C@H](O)[C@H](O)[C@H]2O)[C@H](O)[C@H]1O [Compound 3z, N-[4-O-(β-D-Galactopyranosyl)-β-D-glucopyranosyl]-N-[3-(5-methylfuran-2-yl)phenyl]acetamide] |
